In PMC10599993, “The PTPN2/PTPN1 inhibitor ABBV-CLS-484 unleashes potent anti-tumour immunity” (Nature, 2023):

Tests used:
TNK2 = TNK2 (Homo sapiens, UniProt Q07912); experiment: biochemical; parameters: Kinase selectivity panel, IC50 of AC484 (Supplementary Table 1)
Procedure: (§1) Wide-range phosphatase, kinase and preclinical safety pharmacology off-target activity screens were conducted at Eurofins (Extended Data Table 5 and Supplementary Tables 1 and 2). A small phosphatase panel was developed at AbbVie to assess IC50 values on select phosphatases. The following enzymes used in the phosphatase selectivity panel were purchased from Eurofins: PTPN1 (PTP1B; 14–621), PTPN2 (TC-PTP; 14–646), PTPN9 (14–592), SHP1 (14–591) and SHP2 (14–622). The catalytic activity of the phosphatase was monitored using the small-molecule substrate DiFMUP (ThermoFisher) in a fluorescence assay format. In brief, the phosphatase reactions were performed at room temperature in the following assay buffer: 50 mM HEPES, pH 7.2, 100 mM NaCl, 1 mM EDTA, 0.005% Tween-20 and 5 mM TCEP. Each phosphatase was incubated with increasing concentrations of AC484 for 5 min, after which the substrate DiFMUP was added and incubated at 25 °C for 30 min. The final concentration of the enzyme and substrate was maintained at 0.5 nM and 5 μM, respectively, in all the assays. The reaction was then quenched by the addition of a 100 μM solution of bpV(Phen) (Enzo Life Sciences). The fluorescence signal was monitored using an Envision microplate reader (Perkin-Elmer) using excitation and emission wavelengths of 340 nm and 450 nm, respectively. The dose–response curves for the inhibitors were analysed using normalized IC50 regression curve fitting with control-based normalization. Supplementary file 41586_2023_6575_MOESM3_ESM.xlsx: Supplementary Table 1 AC484 kinase selectivity screen.

Prkcn = target: T1, Prkcn (Homo sapiens, UniProt O94806); experiment: biochemical; parameters: Kinase selectivity panel, IC50 of AC484 (Supplementary Table 1)
T1 construct: gene PRKD3
Procedure: as §1

PKAc beta = target: T2, PKAc beta (Homo sapiens, UniProt P22694); experiment: biochemical; parameters: Kinase selectivity panel, IC50 of AC484 (Supplementary Table 1)
T2 construct: gene PRKACB
Procedure: as §1

LTK = LTK (Homo sapiens, UniProt P29376); experiment: biochemical; parameters: Kinase selectivity panel, IC50 of AC484 (Supplementary Table 1)
Procedure: as §1

Flt1 = Flt1 (Homo sapiens, UniProt P17948); experiment: biochemical; parameters: Kinase selectivity panel, IC50 of AC484 (Supplementary Table 1)
Procedure: as §1

PKA = target: T3, PKA (Homo sapiens, UniProt P17612); experiment: biochemical; parameters: Kinase selectivity panel, IC50 of AC484 (Supplementary Table 1)
T3 construct: gene PRKACA
Procedure: as §1

Plk4 = Plk4 (Homo sapiens, UniProt O00444); experiment: biochemical; parameters: Kinase selectivity panel, IC50 of AC484 (Supplementary Table 1)
Procedure: as §1

Nek2 = Nek2 (Homo sapiens, UniProt P51955); experiment: biochemical; parameters: Kinase selectivity panel, IC50 of AC484 (Supplementary Table 1)
Procedure: as §1

EGFR = EGFR (Homo sapiens, UniProt P00533); experiment: biochemical; parameters: Kinase selectivity panel, IC50 of AC484 (Supplementary Table 1)
Procedure: as §1

Gsk3b = Gsk3b (Homo sapiens, UniProt P49841); experiment: biochemical; parameters: Kinase selectivity panel, IC50 of AC484 (Supplementary Table 1)
Procedure: as §1

PTPN2 = target: T4, PTPN2 (Homo sapiens, UniProt P17706); experiment: X-ray crystal structure (soak); mobility shift enzyme assay IC50; format: biochemical
T4 construct: Met1–Asn314, C-terminal 8× histidine tag (crystal); full-length recombinant (IC50)
From the text: X-ray crystal structure (soak); mobility shift enzyme assay IC50 on PTPN2 | The crystal structure of the PTPN2 protein with AC484 confirmed the formation of several crucial interactions in the active site

Gsk3b, sequence (P49841 whole entry): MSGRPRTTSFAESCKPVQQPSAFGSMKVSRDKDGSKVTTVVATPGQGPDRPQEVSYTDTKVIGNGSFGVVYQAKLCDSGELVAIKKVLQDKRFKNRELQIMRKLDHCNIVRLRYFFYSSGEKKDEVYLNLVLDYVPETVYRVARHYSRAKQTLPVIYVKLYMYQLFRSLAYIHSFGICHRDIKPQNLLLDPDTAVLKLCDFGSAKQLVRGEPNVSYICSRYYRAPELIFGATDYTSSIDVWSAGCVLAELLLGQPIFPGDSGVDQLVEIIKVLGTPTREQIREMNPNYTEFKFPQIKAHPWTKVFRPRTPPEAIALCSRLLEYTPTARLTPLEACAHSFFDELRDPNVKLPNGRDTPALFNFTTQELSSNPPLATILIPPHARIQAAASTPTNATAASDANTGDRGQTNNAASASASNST
Flt1, sequence (P17948 whole entry): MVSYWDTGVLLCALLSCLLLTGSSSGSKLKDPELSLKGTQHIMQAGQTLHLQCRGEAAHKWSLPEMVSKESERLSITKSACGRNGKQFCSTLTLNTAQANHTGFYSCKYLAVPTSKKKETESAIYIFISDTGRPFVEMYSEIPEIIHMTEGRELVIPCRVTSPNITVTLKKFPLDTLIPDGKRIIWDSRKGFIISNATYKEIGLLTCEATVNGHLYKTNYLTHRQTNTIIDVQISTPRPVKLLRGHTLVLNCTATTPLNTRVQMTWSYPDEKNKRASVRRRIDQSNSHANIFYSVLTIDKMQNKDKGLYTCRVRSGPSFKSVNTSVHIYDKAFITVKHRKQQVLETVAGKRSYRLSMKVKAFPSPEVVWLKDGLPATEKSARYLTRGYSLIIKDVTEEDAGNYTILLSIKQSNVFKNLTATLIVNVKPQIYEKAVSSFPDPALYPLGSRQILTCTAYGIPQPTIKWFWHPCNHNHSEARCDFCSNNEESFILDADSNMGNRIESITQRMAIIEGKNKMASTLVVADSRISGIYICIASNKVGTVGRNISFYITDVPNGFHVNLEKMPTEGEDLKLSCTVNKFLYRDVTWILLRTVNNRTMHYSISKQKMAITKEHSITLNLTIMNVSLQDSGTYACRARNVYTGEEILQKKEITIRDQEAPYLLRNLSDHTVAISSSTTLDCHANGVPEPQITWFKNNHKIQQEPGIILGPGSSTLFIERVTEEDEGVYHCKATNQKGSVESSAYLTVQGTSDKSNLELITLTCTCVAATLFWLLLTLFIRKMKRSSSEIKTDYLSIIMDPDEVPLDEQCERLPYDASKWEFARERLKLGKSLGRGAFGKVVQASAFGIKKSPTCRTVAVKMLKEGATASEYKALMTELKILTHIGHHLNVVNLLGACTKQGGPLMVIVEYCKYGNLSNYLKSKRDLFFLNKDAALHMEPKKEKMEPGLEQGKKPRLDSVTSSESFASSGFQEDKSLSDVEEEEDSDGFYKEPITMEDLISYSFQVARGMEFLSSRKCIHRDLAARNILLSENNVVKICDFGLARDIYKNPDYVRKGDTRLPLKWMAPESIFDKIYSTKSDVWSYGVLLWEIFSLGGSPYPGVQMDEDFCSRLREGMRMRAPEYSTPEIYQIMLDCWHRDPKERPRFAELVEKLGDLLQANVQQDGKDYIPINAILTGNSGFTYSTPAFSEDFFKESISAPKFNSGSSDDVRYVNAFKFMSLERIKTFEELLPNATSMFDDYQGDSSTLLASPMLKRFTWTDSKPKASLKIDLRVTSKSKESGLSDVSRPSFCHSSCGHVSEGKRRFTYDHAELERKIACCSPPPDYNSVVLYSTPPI
TNK2, sequence (Q07912 whole entry): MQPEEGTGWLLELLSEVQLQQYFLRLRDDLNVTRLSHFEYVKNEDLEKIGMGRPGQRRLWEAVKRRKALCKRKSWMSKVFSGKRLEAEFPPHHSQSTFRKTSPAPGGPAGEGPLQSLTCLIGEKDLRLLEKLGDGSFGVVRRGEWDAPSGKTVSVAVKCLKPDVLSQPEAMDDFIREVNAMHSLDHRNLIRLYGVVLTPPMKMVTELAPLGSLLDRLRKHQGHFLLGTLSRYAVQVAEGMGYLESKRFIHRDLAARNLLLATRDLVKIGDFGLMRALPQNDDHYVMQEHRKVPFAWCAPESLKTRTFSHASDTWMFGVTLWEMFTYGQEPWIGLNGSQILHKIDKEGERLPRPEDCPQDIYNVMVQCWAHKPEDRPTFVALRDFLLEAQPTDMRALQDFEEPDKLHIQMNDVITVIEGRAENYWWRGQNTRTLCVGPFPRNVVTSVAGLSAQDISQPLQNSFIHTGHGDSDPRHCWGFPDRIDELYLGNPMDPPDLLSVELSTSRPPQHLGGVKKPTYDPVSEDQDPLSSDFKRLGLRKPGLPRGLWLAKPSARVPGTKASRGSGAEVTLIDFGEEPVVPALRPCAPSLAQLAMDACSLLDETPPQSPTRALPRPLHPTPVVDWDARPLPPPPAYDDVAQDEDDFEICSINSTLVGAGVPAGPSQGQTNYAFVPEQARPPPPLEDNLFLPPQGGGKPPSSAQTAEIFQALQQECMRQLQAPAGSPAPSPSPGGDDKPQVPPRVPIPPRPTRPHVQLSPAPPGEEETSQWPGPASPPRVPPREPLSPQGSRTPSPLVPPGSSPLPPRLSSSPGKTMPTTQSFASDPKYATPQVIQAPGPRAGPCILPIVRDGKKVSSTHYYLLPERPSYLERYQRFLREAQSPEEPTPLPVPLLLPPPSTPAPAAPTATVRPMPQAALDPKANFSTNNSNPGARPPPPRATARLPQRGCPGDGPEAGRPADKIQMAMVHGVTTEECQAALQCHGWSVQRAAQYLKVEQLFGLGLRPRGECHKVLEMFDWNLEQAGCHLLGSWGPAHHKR
EGFR, sequence (P00533 whole entry): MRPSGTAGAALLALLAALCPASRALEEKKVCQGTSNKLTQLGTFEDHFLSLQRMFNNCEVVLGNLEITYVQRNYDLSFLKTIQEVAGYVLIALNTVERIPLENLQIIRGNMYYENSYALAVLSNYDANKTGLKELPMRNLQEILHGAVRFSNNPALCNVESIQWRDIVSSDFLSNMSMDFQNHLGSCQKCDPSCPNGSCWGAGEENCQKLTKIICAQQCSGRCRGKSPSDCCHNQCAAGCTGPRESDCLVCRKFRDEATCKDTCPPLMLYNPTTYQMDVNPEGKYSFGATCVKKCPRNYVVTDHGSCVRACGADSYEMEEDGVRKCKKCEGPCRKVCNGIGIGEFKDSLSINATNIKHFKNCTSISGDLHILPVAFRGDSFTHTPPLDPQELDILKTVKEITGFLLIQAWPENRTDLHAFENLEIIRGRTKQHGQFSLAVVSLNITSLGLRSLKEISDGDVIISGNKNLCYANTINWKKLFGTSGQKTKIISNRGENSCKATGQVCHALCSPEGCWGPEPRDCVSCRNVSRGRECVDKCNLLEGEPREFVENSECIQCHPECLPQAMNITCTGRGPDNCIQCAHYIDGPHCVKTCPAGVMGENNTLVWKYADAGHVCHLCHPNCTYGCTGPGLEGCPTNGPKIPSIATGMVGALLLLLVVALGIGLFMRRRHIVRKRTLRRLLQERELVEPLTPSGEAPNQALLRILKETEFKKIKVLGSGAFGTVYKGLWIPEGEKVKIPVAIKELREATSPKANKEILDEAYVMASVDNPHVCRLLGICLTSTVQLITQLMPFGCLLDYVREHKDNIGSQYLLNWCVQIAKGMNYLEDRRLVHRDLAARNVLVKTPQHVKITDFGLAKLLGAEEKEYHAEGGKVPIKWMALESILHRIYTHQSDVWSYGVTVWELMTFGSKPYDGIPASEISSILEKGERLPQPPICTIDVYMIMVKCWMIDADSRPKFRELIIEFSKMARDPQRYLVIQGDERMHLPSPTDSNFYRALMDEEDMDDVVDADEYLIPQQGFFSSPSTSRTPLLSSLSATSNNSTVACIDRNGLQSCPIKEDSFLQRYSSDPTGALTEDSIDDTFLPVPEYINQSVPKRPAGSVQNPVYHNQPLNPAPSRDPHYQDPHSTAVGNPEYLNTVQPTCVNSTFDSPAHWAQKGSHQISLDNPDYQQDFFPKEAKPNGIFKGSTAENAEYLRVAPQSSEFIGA
Plk4, sequence (O00444 whole entry): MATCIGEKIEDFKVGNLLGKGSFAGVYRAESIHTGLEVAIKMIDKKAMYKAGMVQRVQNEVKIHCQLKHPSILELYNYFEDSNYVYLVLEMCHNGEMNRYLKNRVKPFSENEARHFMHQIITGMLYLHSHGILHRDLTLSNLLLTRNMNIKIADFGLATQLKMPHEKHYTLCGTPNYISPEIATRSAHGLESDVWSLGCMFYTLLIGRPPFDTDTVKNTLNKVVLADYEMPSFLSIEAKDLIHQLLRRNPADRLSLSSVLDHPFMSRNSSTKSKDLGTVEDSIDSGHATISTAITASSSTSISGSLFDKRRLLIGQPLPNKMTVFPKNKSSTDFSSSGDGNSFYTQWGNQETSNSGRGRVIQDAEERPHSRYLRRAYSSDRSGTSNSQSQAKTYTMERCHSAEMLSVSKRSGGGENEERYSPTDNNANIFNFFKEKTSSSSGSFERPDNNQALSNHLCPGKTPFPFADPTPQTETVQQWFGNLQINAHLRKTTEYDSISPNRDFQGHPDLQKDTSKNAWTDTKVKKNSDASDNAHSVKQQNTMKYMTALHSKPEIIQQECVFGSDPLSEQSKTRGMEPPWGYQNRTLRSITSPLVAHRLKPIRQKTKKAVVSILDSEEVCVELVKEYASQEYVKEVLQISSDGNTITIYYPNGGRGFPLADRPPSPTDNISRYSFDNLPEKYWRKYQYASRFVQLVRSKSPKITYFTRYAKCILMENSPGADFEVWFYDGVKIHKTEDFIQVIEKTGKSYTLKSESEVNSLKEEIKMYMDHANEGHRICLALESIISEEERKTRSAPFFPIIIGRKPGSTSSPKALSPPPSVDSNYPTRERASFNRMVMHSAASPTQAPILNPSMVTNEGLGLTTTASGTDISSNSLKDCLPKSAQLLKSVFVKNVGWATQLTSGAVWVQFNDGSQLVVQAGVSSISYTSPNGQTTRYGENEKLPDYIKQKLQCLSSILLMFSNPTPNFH

CC(C)CCN[C@@H]1CCc2cc(O)c(N3CC(=O)NS3(=O)=O)c(F)c2C1 [AC484, ABBV-CLS-484]
IC50 (TNK2): > 10 µM
IC50 (Prkcn): > 10 µM
IC50 (PKAc beta): > 10 µM
IC50 (LTK): > 10 µM
IC50 (Flt1): > 10 µM
IC50 (PKA): > 10 µM
IC50 (Plk4): > 10 µM
IC50 (Nek2): > 10 µM
IC50 (EGFR): > 10 µM
IC50 (Gsk3b): > 10 µM
IC50 (PTPN2): 0.0018 µM
